Test results published in patent US20240189277A1, “OPHTHALMIC FORMULATIONS FOR SUSTAINED NEUROPROTECTION” (priority 2021, published 2024).

Assays:
primary mouse RGCs = experiment: Retinal ganglion cell (RGC) viability assay (CellTiter-Glo); assay type: cell-based; settings: concentrations as high as 10 mg/mL; with 1 μM sunitinib malate; 72 h
Protocol: Mouse RGCs were purified as described ny Welsbie, D. S., et al., Proceedings of the National Academy of Sciences of the United States of America, 2013. 110(10): p. 4045-4050. Purified cells were plated on a poly-D-lysine/laminin coated 384-well culture dish at 4,000 cells per well and cultured in Neurobasal media supplemented with B-27, N-2, L-glutamine, and penicillin/streptomycin. Sunitinib malate (1 μM) was dissolved in dimethyl sulfoxide (DMSO) and added at the same time cells were plated (250 nL into 50 μL of media) to promote RGC survival. Then, either PBS or different volumes of sodium pamoate dissolved in DMSO was added at the concentrations indicated (0.1, 1, 10 mg/mL) to determine whether there was any effect on RGC survival. A PBS control was included for each pamoic acid concentration to account for dilutional effects. After cells were cultured for 72 h at 37° C., viability was measured by CellTiter-Glo (Promega) luminescence.

[1] = system: corneal neovascularization; settings: rats; cited from earlier work
physchem = settings: 37 °C, aqueous buffer, thermodynamic from solid
Protocol: To measure solubility, 5 mg of sunitinib malate or SPC complex was placed in microcentrifuge tubes with 1 mL of PBS. The samples were then placed on an orbital shaker (150 rpm) in an incubator at 37° C. After 7 days, samples were collected and centrifuged at 17,000 rcf for 30 min. The supernatant was collected, and concentrations were measured using HPLC (Shimadzu Prominence LC-20). Supernatant samples were mixed 1:10 with acetonitrile containing 0.1% trifluoroacetic acid. Acetonitrile and water was used as a mobile phase at a ratio of 55:45. Samples were eluted isocratically at a flow rate of 1 mL/min through a C18-reversed phase column at 40° C. UV absorbance was monitored at 431 nm.

Row | Compound | effect on primary mouse RGC survival compared to PBS (primary mouse RGCs) | effect on corneal neovascularization after subconjunctival injection [1] | solubility at 7 days (physchem) [µg/mL]
1 | O=C(O)c1cc2ccccc2c(Cc2c(O)c(C(=O)O)cc3ccccc23)c1O [Pamoic acid] | no detrimental effect | – | –
2 | CCN(CC)CCNC(=O)c1c(C)[nH]c(/C=C2\C(=O)Nc3ccc(F)cc32)c1C [sunitinib malate, Sunitinib malate] | – | no effect on neovascularization | 525 ± 63
